Source: publication PMC11796312, “Multifunctional, Fluorene‐Based Modulator of Cholinergic and GABAergic Neurotransmission as a Novel Drug Candidate for Palliative Treatment of Alzheimer's Disease” (Angewandte Chemie (International Ed. in English), 2024)
Values joined by “and” are separate entries in the source; they are usually repeats but may differ in a detail not shown here. Equal entries are not always repeated. “Also recorded” adds a separate entry of the source. Where two headings read alike, the source gives them in different places.

Columns and labels:
[1] = molecular target: T1, eeAChE (Electrophorus electricus, UniProt O42275); assay: Cholinesterase inhibition, Ellman's protocol, eeAChE; type: biochemical; conditions: read-out: eeAChE % inh.
T1 construct: purchased Sigma-Aldrich
T1 sequence (O42275 24-633): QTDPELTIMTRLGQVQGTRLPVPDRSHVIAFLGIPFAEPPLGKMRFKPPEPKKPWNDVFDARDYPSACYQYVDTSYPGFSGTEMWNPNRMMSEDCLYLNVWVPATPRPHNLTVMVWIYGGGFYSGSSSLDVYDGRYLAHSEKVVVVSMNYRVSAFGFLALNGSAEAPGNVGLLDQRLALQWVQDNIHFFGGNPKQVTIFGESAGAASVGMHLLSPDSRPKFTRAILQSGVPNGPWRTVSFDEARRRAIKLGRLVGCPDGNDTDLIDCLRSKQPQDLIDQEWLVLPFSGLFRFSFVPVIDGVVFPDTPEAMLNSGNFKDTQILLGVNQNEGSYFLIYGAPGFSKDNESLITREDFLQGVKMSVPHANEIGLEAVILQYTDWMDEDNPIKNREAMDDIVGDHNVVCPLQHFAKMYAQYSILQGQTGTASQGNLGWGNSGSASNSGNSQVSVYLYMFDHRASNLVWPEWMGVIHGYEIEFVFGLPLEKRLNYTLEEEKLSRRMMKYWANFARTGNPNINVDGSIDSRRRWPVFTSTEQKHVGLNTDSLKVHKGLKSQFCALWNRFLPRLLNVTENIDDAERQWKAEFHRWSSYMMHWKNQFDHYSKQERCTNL
Experimental: In vitro pharmacological assays.
The in vitro inhibitory activity toward cholinesterases (eeAChE, eqBuChE,
The target compounds were tested for their inhibitory potency against cholinesterases using
Ellman’s protocol[32] modified for 96-well microplates.
The stock solutions of the
target compounds were prepared in DMSO and diluted with water, giving the desired final
concentrations. The enzymes were prepared as 5 U/mL aqueous stock solutions and diluted
(AChE or BuChE) were added to the reaction mixture in the wells, containing 25 μL of the
target compound (in case of blank samples – water or water/DMSO mixture), 200 μL of 0.1
M phosphate buffer (pH = 8.0) and 20 μL of 5,5'-dithiobis-(2-nitrobenzoic acid) DTNB
All those reagents were preincubated for 5 min at 25 °C for the reactions with the
animal enzymes (eeAChE or eqBuChe) and 36 °C for the human enzyme ( hBuChE) tests. The
enzymatic reaction was initiated by the addition of 20 μL of substrate acetylthiocholine iodide
using the EnSpire multimode microplate reader (PerkinElmer, Waltham, MA, USA). Target
compounds were tested at the screening concentrations of 10 μM or 1 µM for inhibitory
potencies towards animal cholinesterases or human enzyme, respectively. Percent of enzyme
inhibition was calculated based on the formula 100 -(S/B)x100, where S and B were the
respective enzyme activities with and without the test compound, respectively. Compounds
with the enzyme inhibitory activities at 10 μM better than 50% ( eeAChE or eqBuChe) and at
were based on the absorbance measured at seven different inhibitor concentrations, then
percentages of enzymes’ inhibition were plotted against the applied inhibitor concentrations
using nonlinear regression (GraphPad Prism 9; GraphPad Software, San Diego, CA, USA).
All the experiments were performed in
a %inh. at an inhibitor concentration of 10 µM

[2] = molecular target: T2, human serotonin 5-HT1A receptor (Homo sapiens, UniProt P08908); assay: cAMP 5-HT1A functional assay; type: cell-based
T2 construct: host or cells: CHO-K1
T2 sequence (P08908 whole entry): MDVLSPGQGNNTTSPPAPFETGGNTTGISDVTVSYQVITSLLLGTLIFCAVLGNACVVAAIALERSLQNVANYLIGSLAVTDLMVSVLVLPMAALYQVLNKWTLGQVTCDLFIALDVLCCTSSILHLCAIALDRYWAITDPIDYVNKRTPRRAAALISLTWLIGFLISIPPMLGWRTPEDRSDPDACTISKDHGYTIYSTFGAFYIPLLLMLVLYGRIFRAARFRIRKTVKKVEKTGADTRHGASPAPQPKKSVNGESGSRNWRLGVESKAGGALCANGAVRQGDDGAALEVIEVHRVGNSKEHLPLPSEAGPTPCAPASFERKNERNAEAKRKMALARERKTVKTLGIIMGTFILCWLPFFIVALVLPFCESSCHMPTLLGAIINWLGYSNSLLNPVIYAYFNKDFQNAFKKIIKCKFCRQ
Experimental: Functional assays for 5-HT1A receptor
Tested and reference compounds were dissolved in DMSO to the concentration of 10 mM.
Dilutions were prepared in a 96-well microplate in assay buffers. For 5-HT1A receptors,
adenylyl cyclase activity was determined using cryopreserved CHO-K1 cells expressing the
The final concentration of DMSO in the test solutions was
The functional assay was performed with the CHO-K1 cells with expression of the 5-HT1A
The cells were cultured under selective conditions (400 μg/mL Geneticin G418)
(PerkinElmer). Thawed cells were resuspended in stimulation buffer (HBSS, 5 mM HEPES,
The same volume (10 μL) of cell
suspension was added to tested compounds with 10 μM forskolin. Samples were loaded onto
a white opaque half-area 96-well microplate. Cell stimulation was performed for 40 min at
room temperature. After incubation, cAMP measurements were performed with homogeneous
time-resolved fluorescence resonance energy transfer (TR-FRET) immunoassay using the
LANCE Ultra cAMP kit (PerkinElmer, USA). Ten microliters of EucAMP Tracer Working
Solution and 10 μL of ULight-anti-cAMP Tracer Working Solution were added, mixed, and
incubated for 1 h. The TR-FRET signal was read on an EnVision microplate reader
(PerkinElmer, USA). Emax values were defined as the ligand response expressed as a […]
which 50% of its maximal response was measured.

[3] = Acute toxicity study i.p. (MTD, biochemistry, histopathology); type: in vivo, mice; design: key to prostration / tremor / convulsions / hyper/hypoventilation / drop of eyelids / ataxia / stooped posture: mild (+); moderate (++); severe (+++); conditions: both sexes, ICR-CD1, mouse, in vivo, ip, male and female mice; read-out: maximal tolerated dose (MTD)
Experimental: (§1) Toxicology and pharmacokinetic in vivo study
(§2) ICR-CD1 mice weighing 20–25 g were purchased from Velaz (Prague, Czech Republic).
(§3) They were kept in an air-conditioned room with the light from 07:00 to 19:00 hours and were allowed access to standard food and tap water ad libitum. The mice were divided into groups […]
(§4) Ethical approval statement
(§5) The experimental animals were handled under the supervision of the Ethics Committee of the […]
(§6) 706288/2023-1457) and the treatment of animals was in full accordance with ethical standards laid down in respective Czech and EU regulations.
(§7) Design of in vivo experiments
(§8) Acute toxicity study – Maximal tolerated dose, biochemical analysis, and histopathologic […]
(§9) Mice (ICR-CD1, Velaz, Prague, Czech Republic) were randomly assigned to the experimental groups of two males and two females per one applied dose of 6. 6 was administered intraperitoneally (i.p., 0.1 mL/10 g of animal weight; 1% Tween 80). Several doses were administered to identify the toxic profile of tested compounds and establish the Maximal Tolerated Dose (MTD, i.p.). Treated animals were intensively observed for signs of toxicity, such as respiratory, cardiovascular, and nervous system disability. Weight loss or reduced food consumption was assessed according to the FELASA classification[39] in the first two hours and then periodically for the subsequent 46 hours. The toxicity signs were classified according to a previously published study.[40]
(§10) All animals surviving the 48 hours were deeply euthanized by CO2 and subjected to basic macroscopic necropsy. The blood was collected for biochemical analysis, and selected organs (kidney and liver) were collected for histopathologic examination.
(§11) Venous blood was collected into heparinized tubes (Scanlab Systems, Prague, Czech Republic). Plasma was subsequently separated (3,000 × g for 10 min, 4 °C) using centrifuge U-320R (Boeco, Hamburg, Germany). The concentration of urea and creatinine and the activity of alanine aminotransferase (ALT), aspartate aminotransferase (AST), alkaline […]
(§12) phosphatase (ALP), amylase, and lactate dehydrogenase (LDH) were measured in the accredited biochemical laboratory of the Department of Clinical Biochemistry and Diagnostics, University Hospital, Hradec Kralove, Czech Republic. Statistical data analysis was performed through IBM SPSS Statistics version 26 (IBM, Armonk, NY, USA) using the Kolmogorov-Smirnov and Shapiro-Wilk tests to test data normality. Due to normally distributed data, the Student´s t-test was used to assess the differences compared with the control group (p ≤ 0.05).
(§13) Samples of the liver and kidney were used for standard histopathological examination. Organs were fixed with 10% neutral buffered formalin (Bamed s.r.o., Ceske Budejovice, Czech Republic), histologically processed, and stained with hematoxylin and eosin (both Merck) according to Pejchal et al.[41] The histopathological changes were evaluated using a BX-51 microscope (Olympus, Tokyo, Japan). […]
(§14) The time intervals
(§15) PK studies). The samples were centrifuged at 3,000 × g for 10 min (10 °C), and the plasma samples were stored at -80 °C until the HPLC analysis.

[4] = tested on: ICR-CD1 mice; assay: as above; type: in vivo; design: key to prostration / tremor / convulsions / hyper/hypoventilation / drop of eyelids / ataxia / stooped posture: mild (+); moderate (++); severe (+++); conditions: for stooped posture: Female 1
Experimental: as §1, §2, §3, §4, §5, §6, §7, §8, §9, §10, §11, §12, §13, §14, §15

[5] = 20 mg/kg i.p., Male 1, Female 1, Female 2
[6] = 40 mg/kg i.p., Male 1, Female 1, Female 2
[7] = 60 mg/kg i.p., Male 1, Male 2, Female 2
[8] = female mice, 10 mg/kg, Female 1, Female 2
[9] = female mice, 20 mg/kg, Female 1, Female 2
[10] = female mice, 40 mg/kg, Female 1, Female 2
[11] = female mice, 60 mg/kg, Female 1, Female 2
[12] = male mice, 10 mg/kg i.p., Male 1, Male 2
[13] = male mice, 20 mg/kg i.p., Male 1
[14] = male mice, 20 mg/kg i.p., Male 1, Male 2
[15] = male mice, 40 mg/kg i.p., Male 1, Male 2
[16] = male mice, 60 mg/kg i.p., Male 1, Male 2
[17] = male mice, 60 mg/kg i.p., Male 1, Male 2, 60 mg/kg

Work on `O[C@H](CNCC1CC1)[C@H](Cc1ccccc1)NC1c2ccccc2-c2ccccc21` [Compound 6] yielded an inhibition at 10 µM [1] of under 10%, an Emax ([2]; read-out: 5-HT1A agonist mode E max % [10^-5 M]) of 15% and an Emax ([2]; read-out: 5-HT1A antagonist mode E max %) of 16%. For the same molecule, the MTD at 48 h [3] was 10 mg/kg, the “signs of poisoning at MTD” value ([4]; 10 mg/kg i.p.) was “mild to moderate signs of poisoning may occur” and the “ALP, plasma” value ([4]; 10 mg/kg i.p., 48 h) was 68.4 ± 27.2 U/L. The “ALT, plasma” value ([4]; 10 mg/kg i.p., 48 h) was 29.0 ± 6.5 U/L, the “AST, plasma” value ([4]; 10 mg/kg i.p., 48 h) was 56.8 ± 6.6 U/L and the “Amylase, plasma” value ([4]; 10 mg/kg i.p., 48 h) was 2960 ± 500 U/L and 2955 ± 501 U/L. The “LDH, plasma” value ([4]; 10 mg/kg i.p., 48 h) was 275 ± 94 U/L, the “Urea, plasma” value ([4]; 10 mg/kg i.p., 48 h) was 33.8 ± 8.2 mg/dL and the “blood biochemistry vs control” value ([4]; 10 mg/kg i.p., 48 h, Student's t-test) was “No significant differences”. The Necropsy ([4]; 10 mg/kg i.p., 48 h, table lines in order Male 1, Male 2, Female 1, Female 2) was “no macroscopic pathology; also recorded: no findings; also recorded: mild hyperemia in the peritoneal cavity”, the “Histopathological findings, liver and renal tissue” value (“Histopathological findings” below) ([4]; 10 mg/kg i.p., table lines in order Male 1, Male 2, Female 1, Female 2) was “no tissue damage; also recorded: dg: mild peritoneal irritation; also recorded: no findings” and the “ALP, plasma” value ([4]; 20 mg/kg i.p., N = 3) was 60.4 ± 28.6 U/L. For the same molecule, the “ALT, plasma” value ([4]; 20 mg/kg i.p., N = 3) was 27.0 ± 15.6 U/L, the “AST, plasma” value ([4]; 20 mg/kg i.p., N = 3) was 55.6 ± 6.7 U/L and the “Amylase, plasma” value ([4]; 20 mg/kg i.p., N = 3) was 3129 ± 444 U/L. The “LDH, plasma” value ([4]; 20 mg/kg i.p., N = 3) was 223 ± 38 U/L, the “Urea, plasma” value ([4]; 20 mg/kg i.p., N = 3) was 31.8 ± 6.7 mg/dL and the “Histopathological findings” value [4, 5] was “dg: peritonitis”. For the same molecule, the Necropsy [4, 5] was “moderate hyperemia in the abdominal cavity”, the “ALP, plasma” value ([4]; 40 mg/kg i.p., N = 3) was 63.5 ± 26.9 U/L and the “ALT, plasma” value ([4]; 40 mg/kg i.p., N = 3) was 57.1 ± 16.5 U/L. For the same molecule, the “AST, plasma” value ([4]; 40 mg/kg i.p., N = 3) was 82.4 ± 54.0 U/L, the “Amylase, plasma” value ([4]; 40 mg/kg i.p., N = 3) was 3485 ± 894 U/L and the “LDH, plasma” value ([4]; 40 mg/kg i.p., N = 3) was 511 ± 423 U/L. For the same molecule, the “Urea, plasma” value ([4]; 40 mg/kg i.p., N = 3) was 93.6 ± 60.4 mg/dL, the “Histopathological findings” value [4, 6] was “dg: severe peritonitis” and the Necropsy [4, 6] was “dilatation of small and large intestine loops; also recorded: dilatation of the stomach, small and large”. The “ALP, plasma” value ([4]; 60 mg/kg i.p., N = 3) was 71.4 ± 23.4 U/L, the “ALT, plasma” value ([4]; 60 mg/kg i.p., N = 3) was 230.4 ± 140.7 U/L and the “AST, plasma” value ([4]; 60 mg/kg i.p., N = 3) was 318.0 ± 213.7 U/L. For the same molecule, the “Amylase, plasma” value ([4]; 60 mg/kg i.p., N = 3) was 3723 ± 448 U/L, the “LDH, plasma” value ([4]; 60 mg/kg i.p., N = 3) was 1101 ± 562 U/L and the “Urea, plasma” value ([4]; 60 mg/kg i.p., N = 3) was 142.9 ± 145.2 mg/dL. The “Histopathological findings” value [4, 7] was “dg: severe peritonitis”, the Necropsy [4, 7] was “dilatation of small and large intestine loops” and the hyper/hypoventilation ([4]; female mice, 10 mg/kg i.p., lines in order Female 1, Female 2) was “+”. For the same molecule, the drop of eyelids [4, 8] was “+”, the prostration [4, 8] was “+” and the tremor [4, 8] was “+ and ++”. The convulsions ([4]; female mice, 10 mg/kg, Female 2) was “+”, the stooped posture ([4]; female mice, 20 mg/kg) was “+” and the drop of eyelids [4, 9] was “+”. For the same molecule, the hyper/hypoventilation [4, 9] was “+”, the prostration [4, 9] was “++” and the tremor [4, 9] was “+ and ++”. The “weight at 24 h (%)” value [4, 9] was -4.2% and -1.8%, the “weight at 48 h (%)” value [4, 9] was -6.5% and 0.0% and the drop of eyelids [4, 10] was “+”. For the same molecule, the hyper/hypoventilation [4, 10] was “++”, the tremor [4, 10] was “+” and the “weight at 24 h (%)” value [4, 10] was -4.5% and -3.5%. The “weight at 48 h (%)” value [4, 10] was -9.1% and -7.1%, the stooped posture ([4]; female mice, 60 mg/kg) was “+” and the drop of eyelids [4, 11] was “+”. For the same molecule, the hyper/hypoventilation [4, 11] was “++”, the tremor [4, 11] was “+” and the “weight at 24 h (%)” value [4, 11] was -5.0% and -6.6%. For the same molecule, the mortality ([4]; female mice, 60 mg/kg, Female 1, before the 48-hour check-up) was “died overnight”, the “weight at 48 h (%)” value ([4]; female mice, 60 mg/kg, Female 2) was -7.5% and the prostration [4, 12] was “+”. For the same molecule, the tremor [4, 12] was “+”, the hyper/hypoventilation ([4]; male mice, 10 mg/kg i.p., lines in order Male 1, Male 2) was “+” and the “weight at 24 h (%)” value [4, 13] was -0.2%. For the same molecule, the “weight at 48 h (%)” value [4, 13] was “+1.0%”, the ataxia [4, 14] was “+” and the drop of eyelids [4, 14] was “+”. For the same molecule, the hyper/hypoventilation [4, 14] was “+”, the prostration [4, 14] was “++” and the tremor [4, 14] was “+”. For the same molecule, the convulsions ([4]; male mice, 20 mg/kg i.p., Male 2) was “+++”, the mortality ([4]; male mice, 20 mg/kg i.p., Male 2, before the 24-hour check-up) was “died overnight” and the “weight at 48 h (%)” value ([4]; male mice, 40 mg/kg i.p., Male 1) was -6.7%. For the same molecule, the drop of eyelids [4, 15] was “+”, the hyper/hypoventilation [4, 15] was “++” and the prostration [4, 15] was “++”. For the same molecule, the tremor [4, 15] was “+”, the “weight at 24 h (%)” value ([4]; male mice, 40 mg/kg i.p., Male 1, Male 2, 40 mg/kg) was -6.1% and -7.0% and the mortality ([4]; male mice, 40 mg/kg i.p., Male 2, before the 48-hour check-up) was “died overnight”. The ataxia ([4]; male mice, 60 mg/kg i.p., Male 1) was “+”, the drop of eyelids [4, 16] was “+” and the hyper/hypoventilation [4, 16] was “++”. The prostration [4, 16] was “+++”, the tremor [4, 16] was “+” and the “weight at 24 h (%)” value [4, 17] was -3.6% and -10.5%. For the same molecule, the “weight at 48 h (%)” value [4, 17] was -16.0% and -15.6%.
